According to patent US7423068B2, “Control of parasitic mites of honey bees” (The United States of America as represented by the …, priority 2001, dated 2008):
Values joined by “and” are separate entries in the source; they are usually repeats but may differ in a detail not shown here. Identical values can stand only once.

Tests used:
[1] = system: honey bee (Apis mellifera L.) colony; test: Maximum levels of 2-heptanone without negatively impacting bee behavior (observation hive); type: in vivo; settings: pure 2-heptanone up to 500 μL on filter paper (2700 ppm v/v or 0.27%), queenless two-frame hive, 23° C.
Method: A test was conducted with 2-heptanone in pure form to determine its effects on honey bee (Apis mellifera L.) colony behavior and ascertain if there was a maximum dose of 2 heptanone that could induce a colony to leave their hive. Two full sized frames were taken from a colony in our local apiary and placed inside a two-frame observation hive having a total volume of 8565 cm^3.These two frames contained adult worker bees only and were queenless. A 2-day period when no testing occurred was included to allow for colony adjustment to the new dwellings. The observation hive was set up inside a greenhouse with a 2.5 cm tube connected from the side of the observation hive to the side wall of the greenhouse. This tube served as an exit and entrance for the workers.
We fastened a strip of filter paper measuring 7.6 cm by 2.5 cm to the top inside frame of the observation colony with a thumbtack and applied an initial 100 μL of pure 2-heptanone to the filter paper and observed worker behavior. Subsequent applications of 40 μL of 2-heptanone were applied every 4 minutes with observations of worker behavior documented. Ambient temperature at the time of the observations was 23° C. […]
Our experiment ended when 500 μL of pure 2-heptanone was the total amount on our filter paper. Concentration of 500 μL of 2-heptanone in the two-frame observation hive was calculated to be 2700 ppm v/v or 0.27%.

[2] = system: Varroa mite; test: Miticidal activity in 5-frame honey bee colonies (sticky board counts); type: in vivo, Varroa jacobsoni
Method: This set of bioassays was conducted in 5-frame colonies. We tested miticidal activity of 30% concentration 2-heptanone in an acrylic block dispenser. Four colonies were established for each of the following treatments: 2-heptanone, Apistan® (a commercially available miticide for control of Varroa), and no treatment (i.e., Controls). Before each treatment, counts were made of the number of mites that dropped on to Dewill® Varroa Mite Detector Inserts (hereinafter denoted as “sticky boards”) placed at the bottom of colonies for one week (pre-treatment counts). A new sticky board then was inserted at the bottom of each colony, and either a single acrylic block dispenser with 30% 2-heptanone made as in Example 6 (surface area=28.3 cm^2) or a single Apistan® strip was placed between the frames. The Controls comprised no treatment. The number of mites on the sticky boards was counted weekly for 3-4 weeks afterwards (treatment interval). New sticky boards were inserted at the beginning of each week. At the end of the test period, the 2-heptanone and Apistan® were removed, and a new sticky board was inserted on the bottom of the colonies. A new Apistan® strip then was placed in the colonies to kill any remaining mites (post-treatment interval). The number of mites on the sticky board was counted after the colony was exposed to the new Apistan® strip for one week. The % Reduction in the Varroa Population was estimated by summing all the mites counted on the sticky board during the 3 or 4 week treatment interval and dividing it by the total number of mites counted for the colony during both the treatment and post-treatment intervals.
When we removed the acrylic strips from the colony after three weeks, we could still detect the odor of 2-heptanone. We repeated the test with new colonies, and in this trial (Trial-2) left the 2-heptanone and Apistan® strips in the colony for 4 weeks. We then placed the post-treatment Apistan® strips in the colonies.
This test (Trial 3) was carried out in 5-frame colonies as described above except for the following changes. […]

[3] = in words; cited from earlier work
[4] = system: mites; test: Minimum Level Treatment Effectiveness petri dish bioassay; type: in vivo; settings: for # of Dead Mites/Total Mites: 17.5 hours exposure
Method: Determination of the minimum amount of 2-heptanone effective in mite mortality in our bioassay was performed according to the following procedure: 3 Kimwipes® were placed on the bottom of petri dishes and slightly moistened with water using a disposable 1 ml pipette. A cut section of Parafilm® M was placed over the moistened Kimwipes® and stretched up and over the outer edge of the petri dish bottom. […] A single Whatman® Filter paper (9.0 cm) was placed on top of the pierced Parafilm® area and pushed down to create space between the filter paper and the petri dish lid. Six to eight mites and two bee larvae were placed on top of the filter paper in each petri dish. A small strip of filter paper was taped to the inside top of each petri dish. Four groups of two petri dishes were labeled according to the type of treatment. The treatments were: 1 μL 2-heptanone; 5 μL 2-heptanone; 10 μL 2-heptanone; and Control (no treatment). All eight dishes were then placed in incubators set to maintain a temperature of 33-34.4° C. Our results were as follows:
In our second bioassay, the same protocol was applied; however we sought to investigate if lower amounts of 2-heptanone could be as effective. In this trial, amounts of 0.5 and 1 μL of 2-heptanone were used. After 17.5 hours exposure to 2-heptanone, our results were as follows: […]

## CCCCCC(C)=O [2-Heptanone]
[1]
  bees exiting the observation hive: At no time however, did all bees fully or permanently exit the observation hive
[2]; Trial 1, 3 week treatment, 30% 2-heptanone acrylic block or single Apistan strip, Control 42.2 ± 7.0
  % Reduction in Varroa Mite Population ± S.E.: 61.8 ± 8.5 a %
[2]; Trial 2, 4 week treatment, 30% 2-heptanone acrylic block or single Apistan strip, Control 43.6 ± 4.2
  % Reduction in Varroa Mite Population ± S.E.: 73.6 ± 13.7 a %
[2]; Trial 3, controlled release strip with 60 g 2-heptanone on top bar, renewed after 3 weeks, or Apistan strip, Control 69.35 ± 4.8
  % Reduction in Varroa Mite Population ± S.E.: 87.05 ± 4.4 a %
[3]
  solubility in water: very slightly soluble in water
[4]; 0.5 μL 2-heptanone, per dish
  # of Dead Mites/Total Mites: 1/6 and 1/5 and 2/6 and 0/5
[4]; 1 μL 2-heptanone, per dish
  # of Dead Mites/Total Mites: 3/6 and 0/5 and 1/4 and 1/5
  % Mortality 25.5 hours: 50% and 66%
  % Mortality 40.5 hours: 50% and 66%
[4]; 5 μL 2-heptanone, per dish
  % Mortality 40.5 hours: 100% and 68%
[4]; 10 μL 2-heptanone, per dish
  % Mortality 17.5 hours: 66% and 40%
  % Mortality 25.5 hours: 66% and 50%
  % Mortality 40.5 hours: 66% and 60%
[4]; mites inanimate at 1 hour, active again as 2-heptanone evaporated
  action on the mites at higher concentrations: knockdown action
[4]; petri dish
  minimum amount of 2-heptanone that will cause mite mortality: 1 µL
